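Cultured in 96-well plates, cells were exposed to test compound for 48 hours across five concentrations. GI50 is the concentration that inhibits growth by half.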 Activity calls are given as the source filed them. No stated cut-off is given here; in the data, active = GI50 up to about 1.1 µM and inactive = higher.
Assays:
Test in all cases: growth of human tumour cells (NCI), 48 h
DLD-1 = system: DLD-1
DMS-273 = system: DMS-273
HOP-18 = system: HOP-18
KM-20L2 = system: KM-20L2
LXFL 529 = system: LXFL 529
M19-MEL = system: M19-MEL
RXF 631 = system: RXF 631
SNB-78 = system: SNB-78
XF498 = system: XF498

Measured: GI50

COC(=O)C1=C(C(=O)OC)N(C(C)C)[C@H]2C(C(=O)OC)=C(C(=O)OC)N(C(C)C)[C@@H]12
inactive: DLD-1 > 100 µM | DMS-273 > 100 µM | HOP-18 > 100 µM | KM-20L2 > 100 µM | LXFL 529 > 100 µM | M19-MEL > 100 µM | RXF 631 > 100 µM | SNB-78 > 100 µM | XF498 > 100 µM

O=C(O)CN(c1ccccc1)S(=O)(=O)c1ccc([N+](=O)[O-])cc1
inactive: DLD-1 > 100 µM | DMS-273 > 100 µM | HOP-18 > 100 µM | KM-20L2 > 100 µM | LXFL 529 > 100 µM | M19-MEL > 100 µM | RXF 631 > 100 µM | XF498 > 100 µM

COc1cc2c[n+](C)c3c4ccccc4ccc3c2cc1OC.COc1cc2cnc3c4ccccc4ccc3c2cc1OC
inactive: DLD-1 31.3 µM | DMS-273 2.88 µM | HOP-18 23.3 µM | KM-20L2 8.81 µM | LXFL 529 2.21 µM | M19-MEL 3.85 µM | RXF 631 23 µM | XF498 5.69 µM

O=C1CNC(=O)c2[nH]cnc2N1
inactive: DLD-1 > 100 µM | DMS-273 > 100 µM | HOP-18 > 100 µM | LXFL 529 > 100 µM | M19-MEL > 100 µM | RXF 631 39.9 µM | SNB-78 > 100 µM | XF498 49.3 µM

CCOc1ccccc1N1C(=O)C(=O)C(c2nc3ccccc3o2)C(=O)C1=O
inactive: DLD-1 > 100 µM | DMS-273 > 100 µM | HOP-18 28.7 µM | KM-20L2 > 100 µM | LXFL 529 > 100 µM | M19-MEL > 100 µM | RXF 631 > 100 µM | SNB-78 > 100 µM

CN1C(c2ccccc2)CS(=O)(=O)CS1(=O)=O (centres undefined)
inactive: DLD-1 > 100 µM | DMS-273 > 100 µM | HOP-18 > 100 µM | KM-20L2 > 100 µM | LXFL 529 > 100 µM | M19-MEL > 100 µM | RXF 631 > 100 µM | SNB-78 > 100 µM | XF498 > 100 µM

Clc1cc(Cl)cc(Nc2nc3ccccc3nc2-c2cccs2)c1
inactive: DLD-1 41.4 µM | DMS-273 14.2 µM | HOP-18 28.5 µM | KM-20L2 > 10 µM | LXFL 529 35.8 µM | M19-MEL 24.2 µM | RXF 631 15.8 µM | SNB-78 62.5 µM | XF498 28.1 µM

— ChEMBL document CHEMBL1201862, “PubChem BioAssay data set” (2004)
